The values below are quoted from earlier work in patent US20120100192A1, “LOCAL THERAPEUTIC RELEASE DEVICE” (DEXCEL PHARMA TECHNOLOGIES LTD., priority 2009, published 2012).

Data set [1] has as its system experimentally induced periodontal disease. To be noted: Macaca mulatta monkeys.
Data set [2] has as its system naturally occurring periodontitis. The following applies: application for 6-12 months, beagle dogs.
For data set [3], the system named is periodontal disease. The following applies: 100 mg/day for two months; standardized radiography, radiopharmaceutical uptake.
Data set [4] has as its system periodontal disease. The following applies: topical toothpaste, 1% w/w, twice daily for 12 months.
A further data set has as its system alveolar bone loss. The following applies: 24 months, FBP-treated patient group.

Turning to `CC(C(=O)O)c1ccc(-c2ccccc2)c(F)c1` (centres unmarked) [FBP, flurbiprofen], the “Effect on attachment, bleeding on probing and gingival redness” value in data set [1] is “significant inhibition of attachment, bleeding on probing and gingival redness”. Further, in data set [2], the “Effect on alveolar bone loss” value was “inhibited alveolar bone loss”. Besides, the “Effect on bone metabolism” value with periodontal disease [3] is on record as “increased bone metabolism”. For the same compound, the Effect on bone entry in the data set on periodontal disease [4] is on record as “statistically significant bone gain”. Further, in the data set with alveolar bone loss, the “Effect on bone loss” value is reported as “reduction in bone loss”.
